According to ChEMBL document CHEMBL1909046, “DrugMatrix in vitro pharmacology data”:

Tests used:
[1] = DRUGMATRIX: Sodium/nucleoside co-transporter radioligand binding (ligand: nitrobenzylthioinosine); type: cell membranes, Cavia porcellus, Dunkin-Hartley, Cerebral cortex, Membrane; conditions: Not Active = under 50% inhibition at 10 µM
[2] = DRUGMATRIX: Purinergic P2X radioligand binding (ligand: [3H] alpha, beta-Methylene-ATP); type: cell membranes, Oryctolagus cuniculus, New Zealand albino, Urinary bladder, Membrane; conditions: Not Active = under 50% inhibition at 10 µM
[3] = target: Tyrosine-protein kinase Fyn (Homo sapiens, UniProt P06241); test: biochemical; type: cell-based, Insect cells; conditions: insect cells;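 note: enzymatic inhibition of Fyn kinase activity measured with Poly(Glu:Tyr) as the phosphorylation substrate; in other assays of this panel Not Active means under 50% inhibition at 10 µM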
[4] = target: T1, Muscarinic acetylcholine receptor M4 (Homo sapiens, UniProt P08173); type: cell membranes, CHO-K1, Membrane; conditions: cho-k1; note: in other assays of this panel Not Active means under 50% inhibition at 10 µM
T1 sequence (P08173 whole entry): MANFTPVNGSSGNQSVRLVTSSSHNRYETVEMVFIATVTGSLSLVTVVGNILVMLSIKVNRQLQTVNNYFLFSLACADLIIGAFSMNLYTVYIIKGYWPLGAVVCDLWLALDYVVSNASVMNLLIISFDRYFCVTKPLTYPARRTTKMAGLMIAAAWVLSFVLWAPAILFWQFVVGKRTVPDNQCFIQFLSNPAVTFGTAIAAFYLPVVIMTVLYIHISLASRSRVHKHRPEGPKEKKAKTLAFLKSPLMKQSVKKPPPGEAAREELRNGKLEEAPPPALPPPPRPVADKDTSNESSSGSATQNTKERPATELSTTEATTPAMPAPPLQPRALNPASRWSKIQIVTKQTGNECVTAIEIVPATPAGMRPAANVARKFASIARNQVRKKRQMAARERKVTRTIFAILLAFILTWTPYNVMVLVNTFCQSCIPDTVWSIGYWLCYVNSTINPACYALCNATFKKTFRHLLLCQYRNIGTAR

Nitric oxide synthase 1 = Nitric oxide synthase 1 (Rattus norvegicus, UniProt P29476); type: tissue-based, Cerebellum; note: in other assays of this panel Not Active means under 50% inhibition at 10 µM
Cytochrome P450 2A6 = target: T2, Cytochrome P450 2A6 (Homo sapiens, UniProt P11509); conditions: bti-tn-5b1-4; note: in other assays of this panel Not Active means under 50% inhibition at 10 µM
T2 sequence (P11509 whole entry): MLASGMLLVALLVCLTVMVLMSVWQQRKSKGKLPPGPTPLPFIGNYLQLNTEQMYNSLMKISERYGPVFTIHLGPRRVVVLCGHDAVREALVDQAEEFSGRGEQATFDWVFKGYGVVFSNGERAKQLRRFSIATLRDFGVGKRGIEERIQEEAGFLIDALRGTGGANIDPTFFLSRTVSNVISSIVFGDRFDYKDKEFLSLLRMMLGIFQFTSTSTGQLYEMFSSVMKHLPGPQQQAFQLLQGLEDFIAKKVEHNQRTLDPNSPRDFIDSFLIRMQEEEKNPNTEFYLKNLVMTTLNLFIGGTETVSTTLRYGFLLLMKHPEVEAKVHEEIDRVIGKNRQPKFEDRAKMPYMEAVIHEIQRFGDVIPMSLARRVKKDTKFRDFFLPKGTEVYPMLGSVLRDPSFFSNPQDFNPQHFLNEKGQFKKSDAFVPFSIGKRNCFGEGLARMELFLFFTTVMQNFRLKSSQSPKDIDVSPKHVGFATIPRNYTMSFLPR

[5] = target: Mitogen-activated protein kinase 14 (Homo sapiens, UniProt Q16539); design: species or system Escherichia coli
[6] = DRUGMATRIX: Serotonin (5-Hydroxytryptamine) 5-HT3 radioligand binding (ligand: [3H] GR-65630); type: cell membranes, Membrane; conditions: hek293; Not Active = under 50% inhibition at 10 µM
Endothelin-1 receptor = target: T3, Endothelin-1 receptor (Homo sapiens, UniProt P25101); type: cell membranes, Membrane; conditions: cho-k1; note: in other assays of this panel Not Active means under 50% inhibition at 10 µM
T3 sequence (P25101 whole entry): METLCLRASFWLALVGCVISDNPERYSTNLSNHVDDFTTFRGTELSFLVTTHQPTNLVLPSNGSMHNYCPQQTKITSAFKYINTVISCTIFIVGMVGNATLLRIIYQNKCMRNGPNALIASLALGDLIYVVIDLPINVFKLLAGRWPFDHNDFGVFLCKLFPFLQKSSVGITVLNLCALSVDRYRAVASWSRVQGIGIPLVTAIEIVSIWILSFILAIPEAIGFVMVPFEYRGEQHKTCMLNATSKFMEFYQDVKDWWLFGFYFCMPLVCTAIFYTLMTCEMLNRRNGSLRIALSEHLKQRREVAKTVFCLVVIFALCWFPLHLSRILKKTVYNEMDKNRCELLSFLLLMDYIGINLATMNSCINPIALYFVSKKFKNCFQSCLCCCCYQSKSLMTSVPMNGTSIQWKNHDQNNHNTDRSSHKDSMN

[7] = target: T4, Polyunsaturated fatty acid lipoxygenase ALOX15 (Oryctolagus cuniculus, UniProt P12530); test: biochemical; type: tissue-based, Reticulocytes; conditions: reticulocytes
T4 sequence (P12530 whole entry): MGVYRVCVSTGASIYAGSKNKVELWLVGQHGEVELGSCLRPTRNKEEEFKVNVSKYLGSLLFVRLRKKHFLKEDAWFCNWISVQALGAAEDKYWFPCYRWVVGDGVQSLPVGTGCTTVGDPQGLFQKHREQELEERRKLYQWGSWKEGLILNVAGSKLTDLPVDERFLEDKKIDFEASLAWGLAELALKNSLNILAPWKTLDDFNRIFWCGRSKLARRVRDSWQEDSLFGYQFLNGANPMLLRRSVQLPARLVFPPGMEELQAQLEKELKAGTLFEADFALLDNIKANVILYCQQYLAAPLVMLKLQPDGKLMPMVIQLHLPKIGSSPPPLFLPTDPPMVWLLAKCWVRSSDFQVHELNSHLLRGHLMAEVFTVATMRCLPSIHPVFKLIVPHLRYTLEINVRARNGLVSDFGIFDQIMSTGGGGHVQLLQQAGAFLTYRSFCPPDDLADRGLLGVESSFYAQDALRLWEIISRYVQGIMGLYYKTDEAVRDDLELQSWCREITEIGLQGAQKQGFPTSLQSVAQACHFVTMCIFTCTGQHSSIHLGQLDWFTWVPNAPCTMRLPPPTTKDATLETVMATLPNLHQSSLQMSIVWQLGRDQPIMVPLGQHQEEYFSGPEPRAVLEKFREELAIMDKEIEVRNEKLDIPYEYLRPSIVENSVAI

[8] = DRUGMATRIX: Phosphodiesterase PDE4 enzyme inhibition (substrate: [3H]cAMP + cAMP); conditions: u-937; Not Active = under 50% inhibition at 10 µM
[9] = target: 5-hydroxytryptamine receptor 2B (Homo sapiens, UniProt P41595); type: cell membranes, CHO-K1, Membrane; conditions: cho-k1; note: in other assays of this panel Not Active means under 50% inhibition at 10 µM
[10] = target: 5-hydroxytryptamine receptor 6 (Homo sapiens, UniProt P50406); type: cell membranes, HeLa, Membrane; conditions: hela; note: in other assays of this panel Not Active means under 50% inhibition at 10 µM
[11] = DRUGMATRIX: Glutamate, AMPA radioligand binding (ligand: [3H] AMPA); type: cell membranes, Rattus norvegicus, Wistar, Cerebral cortex, Membrane; conditions: Not Active = under 50% inhibition at 10 µM

Sequence of 5-hydroxytryptamine receptor 6 (P50406 whole entry): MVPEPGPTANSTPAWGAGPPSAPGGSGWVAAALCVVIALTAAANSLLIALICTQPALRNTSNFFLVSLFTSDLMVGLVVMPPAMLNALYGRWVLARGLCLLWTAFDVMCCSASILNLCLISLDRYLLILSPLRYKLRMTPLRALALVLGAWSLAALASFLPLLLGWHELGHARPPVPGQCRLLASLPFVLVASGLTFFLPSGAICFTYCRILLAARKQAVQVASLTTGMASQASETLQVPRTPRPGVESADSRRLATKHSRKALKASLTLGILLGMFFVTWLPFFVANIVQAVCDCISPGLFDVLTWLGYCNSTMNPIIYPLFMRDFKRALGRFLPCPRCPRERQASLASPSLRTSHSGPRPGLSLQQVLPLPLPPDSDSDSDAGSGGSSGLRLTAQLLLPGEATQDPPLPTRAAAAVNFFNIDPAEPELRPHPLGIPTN
Sequence of 5-hydroxytryptamine receptor 2B (P41595 whole entry): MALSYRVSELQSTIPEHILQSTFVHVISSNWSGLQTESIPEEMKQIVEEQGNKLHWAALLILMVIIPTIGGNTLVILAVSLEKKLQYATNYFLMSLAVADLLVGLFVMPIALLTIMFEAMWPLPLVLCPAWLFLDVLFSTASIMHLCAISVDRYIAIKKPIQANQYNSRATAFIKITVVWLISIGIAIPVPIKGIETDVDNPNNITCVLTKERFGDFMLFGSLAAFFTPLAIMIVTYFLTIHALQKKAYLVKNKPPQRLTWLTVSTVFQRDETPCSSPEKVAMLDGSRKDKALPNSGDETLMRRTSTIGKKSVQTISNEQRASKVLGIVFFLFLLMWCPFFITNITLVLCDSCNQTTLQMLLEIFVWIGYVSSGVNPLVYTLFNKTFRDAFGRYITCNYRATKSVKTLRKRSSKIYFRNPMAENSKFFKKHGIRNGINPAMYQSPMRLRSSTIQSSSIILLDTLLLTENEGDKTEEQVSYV
Sequence of Tyrosine-protein kinase Fyn (P06241 whole entry): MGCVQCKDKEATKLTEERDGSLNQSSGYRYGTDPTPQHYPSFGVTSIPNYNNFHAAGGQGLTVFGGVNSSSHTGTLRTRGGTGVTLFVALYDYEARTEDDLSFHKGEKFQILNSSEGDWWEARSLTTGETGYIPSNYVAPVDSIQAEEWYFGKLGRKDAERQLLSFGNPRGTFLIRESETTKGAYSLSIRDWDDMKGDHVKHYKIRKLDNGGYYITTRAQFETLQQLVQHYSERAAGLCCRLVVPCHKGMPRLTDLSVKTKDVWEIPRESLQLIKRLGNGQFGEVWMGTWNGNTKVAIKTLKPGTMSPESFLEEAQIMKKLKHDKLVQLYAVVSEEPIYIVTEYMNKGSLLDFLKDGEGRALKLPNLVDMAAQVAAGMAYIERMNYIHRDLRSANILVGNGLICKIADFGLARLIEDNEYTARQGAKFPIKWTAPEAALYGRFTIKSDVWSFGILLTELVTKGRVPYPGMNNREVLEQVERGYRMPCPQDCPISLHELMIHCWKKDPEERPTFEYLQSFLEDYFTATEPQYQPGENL
Sequence of Mitogen-activated protein kinase 14 (Q16539 whole entry): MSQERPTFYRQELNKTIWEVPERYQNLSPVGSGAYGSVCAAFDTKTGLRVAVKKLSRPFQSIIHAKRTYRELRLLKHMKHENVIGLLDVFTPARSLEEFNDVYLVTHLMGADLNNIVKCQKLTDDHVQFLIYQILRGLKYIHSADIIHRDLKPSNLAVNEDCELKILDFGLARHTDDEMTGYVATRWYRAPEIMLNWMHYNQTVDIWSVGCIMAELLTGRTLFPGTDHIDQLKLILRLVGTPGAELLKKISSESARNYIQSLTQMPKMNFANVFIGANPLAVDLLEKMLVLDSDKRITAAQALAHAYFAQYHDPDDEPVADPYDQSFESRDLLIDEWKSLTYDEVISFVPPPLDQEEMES
Sequence of Nitric oxide synthase 1 (P29476 whole entry): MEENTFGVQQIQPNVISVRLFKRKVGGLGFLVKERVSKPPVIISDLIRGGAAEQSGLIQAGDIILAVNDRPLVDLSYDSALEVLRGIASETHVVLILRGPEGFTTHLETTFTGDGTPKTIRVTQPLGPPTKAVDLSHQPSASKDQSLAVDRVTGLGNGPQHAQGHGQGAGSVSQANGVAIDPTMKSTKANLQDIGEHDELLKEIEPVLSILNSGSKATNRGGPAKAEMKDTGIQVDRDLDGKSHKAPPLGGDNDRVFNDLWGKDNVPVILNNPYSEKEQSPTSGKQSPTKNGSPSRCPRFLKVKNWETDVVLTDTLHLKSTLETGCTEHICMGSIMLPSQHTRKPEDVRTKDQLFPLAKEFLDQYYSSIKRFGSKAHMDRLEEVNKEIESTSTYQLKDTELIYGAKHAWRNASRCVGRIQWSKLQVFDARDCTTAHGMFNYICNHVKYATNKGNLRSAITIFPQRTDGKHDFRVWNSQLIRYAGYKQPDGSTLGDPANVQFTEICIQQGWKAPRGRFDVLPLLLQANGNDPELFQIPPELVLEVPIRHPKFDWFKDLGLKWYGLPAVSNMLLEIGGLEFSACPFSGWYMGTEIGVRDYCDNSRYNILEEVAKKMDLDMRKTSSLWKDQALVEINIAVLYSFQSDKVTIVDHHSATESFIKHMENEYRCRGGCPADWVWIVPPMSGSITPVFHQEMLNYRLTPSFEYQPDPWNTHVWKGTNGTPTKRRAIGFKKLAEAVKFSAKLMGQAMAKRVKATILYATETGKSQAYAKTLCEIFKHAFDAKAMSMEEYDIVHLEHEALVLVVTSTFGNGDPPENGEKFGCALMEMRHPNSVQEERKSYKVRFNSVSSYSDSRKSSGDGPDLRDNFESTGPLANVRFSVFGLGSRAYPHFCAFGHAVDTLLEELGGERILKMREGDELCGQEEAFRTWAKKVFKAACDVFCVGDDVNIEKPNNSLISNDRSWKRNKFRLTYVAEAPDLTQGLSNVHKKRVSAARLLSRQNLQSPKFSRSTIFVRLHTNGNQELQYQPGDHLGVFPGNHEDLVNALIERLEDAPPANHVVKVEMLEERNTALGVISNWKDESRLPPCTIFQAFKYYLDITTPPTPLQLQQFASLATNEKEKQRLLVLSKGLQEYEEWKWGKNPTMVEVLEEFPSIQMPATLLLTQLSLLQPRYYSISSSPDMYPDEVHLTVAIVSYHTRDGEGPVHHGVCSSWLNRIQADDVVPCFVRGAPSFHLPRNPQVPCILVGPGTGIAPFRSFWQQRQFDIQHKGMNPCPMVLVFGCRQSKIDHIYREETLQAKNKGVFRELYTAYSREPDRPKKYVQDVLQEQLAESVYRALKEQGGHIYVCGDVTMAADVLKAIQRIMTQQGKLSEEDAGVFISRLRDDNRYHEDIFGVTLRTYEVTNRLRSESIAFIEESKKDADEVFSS

C=C1[C@@H]2CCC3[C@@](CC[C@@H]4[C@H](C(=O)O)C[C@@H](O[C@@H]5O[C@H](CO)[C@@H](OS(=O)(=O)[O-])[C@H](OS(=O)(=O)[O-])[C@H]5OC(=O)CC(C)C)C[C@@]34C)(C2)[C@@H]1O.[K+].[K+] (stereo not given in full) [ATRACTYLOSIDE]
Not Active: IC50 [1] | Ki [1] | IC50 [2] | Ki [2] | IC50 [3] | IC50 [4] | IC50 (Nitric oxide synthase 1) | IC50 (Cytochrome P450 2A6) | Ki (Cytochrome P450 2A6) | IC50 [5] | IC50 [6] | Ki [6] | IC50 (Endothelin-1 receptor) | IC50 [7] | IC50 [8] | Ki [8] | IC50 [9] | IC50 [10] | IC50 [11] | Ki [11]

CC1(C)[C@@H](O[C@H]2O[C@H](C(=O)O)[C@@H](O)[C@H](O)[C@H]2O[C@@H]2O[C@H](C(=O)O)[C@@H](O)[C@H](O)[C@H]2O)CC[C@]2(C)[C@H]3C(=O)C=C4[C@@H]5C[C@@](C)(C(=O)O)CC[C@]5(C)CC[C@@]4(C)[C@]3(C)CC[C@@H]12 [GLYCYRRHIZIN]
Not Active: IC50 [1] | Ki [1] | IC50 [2] | Ki [2] | IC50 [3] | IC50 [4] | IC50 (Nitric oxide synthase 1) | IC50 (Cytochrome P450 2A6) | Ki (Cytochrome P450 2A6) | IC50 [5] | IC50 [6] | Ki [6] | IC50 (Endothelin-1 receptor) | IC50 [7] | IC50 [8] | Ki [8] | IC50 [9] | IC50 [10] | IC50 [11] | Ki [11]

Cn1cnc([N+](=O)[O-])c1Sc1ncnc2nc[nH]c12 [AZATHIOPRINE]
Not Active: IC50 [1] | Ki [1] | IC50 [2] | Ki [2] | IC50 [3] | IC50 [4] | IC50 (Nitric oxide synthase 1) | IC50 (Cytochrome P450 2A6) | Ki (Cytochrome P450 2A6) | IC50 [5] | IC50 [6] | Ki [6] | IC50 (Endothelin-1 receptor) | IC50 [7] | IC50 [8] | Ki [8] | IC50 [9] | IC50 [10] | IC50 [11] | Ki [11]

CC(C)n1c(/C=C/C(O)CC(O)CC(=O)O)c(-c2ccc(F)cc2)c2ccccc21 (stereo not given) [FLUVASTATIN]
Not Active: IC50 [1] | Ki [1] | IC50 [2] | Ki [2] | IC50 [3] | IC50 [4] | IC50 (Nitric oxide synthase 1) | IC50 (Cytochrome P450 2A6) | Ki (Cytochrome P450 2A6) | IC50 [5] | IC50 [6] | Ki [6] | IC50 (Endothelin-1 receptor) | IC50 [7] | IC50 [8] | Ki [8] | IC50 [9] | IC50 [10] | IC50 [11] | Ki [11]

Cc1c(-c2ccccc2)oc2c(C(=O)OCCN3CCCCC3)cccc2c1=O [FLAVOXATE]
Not Active: IC50 [1] | Ki [1] | IC50 [2] | Ki [2] | IC50 [3] | IC50 [4] | IC50 (Nitric oxide synthase 1) | IC50 (Cytochrome P450 2A6) | Ki (Cytochrome P450 2A6) | IC50 [5] | IC50 [6] | Ki [6] | IC50 (Endothelin-1 receptor) | IC50 [7] | IC50 [8] | Ki [8] | IC50 [9] | IC50 [10] | IC50 [11] | Ki [11]

COc1ccc2c(c1)c(CC(=O)OCC(=O)O)c(C)n2C(=O)c1ccc(Cl)cc1 [ACEMETACIN]
Not Active: IC50 [1] | Ki [1] | IC50 [2] | Ki [2] | IC50 [3] | IC50 [4] | IC50 (Nitric oxide synthase 1) | IC50 (Cytochrome P450 2A6) | Ki (Cytochrome P450 2A6) | IC50 [5] | IC50 [6] | Ki [6] | IC50 (Endothelin-1 receptor) | IC50 [7] | IC50 [8] | Ki [8] | IC50 [9] | IC50 [10] | IC50 [11] | Ki [11]

COc1ccc([C@@H]2Sc3ccccc3N(CCN(C)C)C(=O)[C@@H]2OC(C)=O)cc1 [DILTIAZEM]
Not Active: IC50 [1] | Ki [1] | IC50 [2] | Ki [2] | IC50 [3] | IC50 [4] | IC50 (Nitric oxide synthase 1) | IC50 (Cytochrome P450 2A6) | Ki (Cytochrome P450 2A6) | IC50 [5] | IC50 [6] | Ki [6] | IC50 (Endothelin-1 receptor) | IC50 [7] | IC50 [8] | Ki [8] | IC50 [9] | IC50 [10] | IC50 [11] | Ki [11]
